Reference: ChEMBL document CHEMBL1909046, “DrugMatrix in vitro pharmacology data”

Experiments:
[1] = biological target: Beta-3 adrenergic receptor (Homo sapiens, UniProt P13945); experiment: DRUGMATRIX: Adrenergic beta3 radioligand binding (ligand: [125I] Cyanopindolol); format: cell membranes, Membrane; conditions: hek293; Not Active = under 50% inhibition at 10 µM
[2] = DRUGMATRIX: Calcium Channel Type L, Phenylalkylamine radioligand binding (ligand: [3H] (-)-Desmethoxyverapamil (D-888)); format: cell membranes, Rattus norvegicus, Wistar, Brain, Membrane; conditions: Not Active = under 50% inhibition at 10 µM
[3] = biological target: C-C chemokine receptor type 5 (Homo sapiens, UniProt P51681); format: cell membranes, HEK293, Membrane; further: in other assays of this panel Not Active means under 50% inhibition at 10 µM
Sequence of C-C chemokine receptor type 5 (P51681 whole entry): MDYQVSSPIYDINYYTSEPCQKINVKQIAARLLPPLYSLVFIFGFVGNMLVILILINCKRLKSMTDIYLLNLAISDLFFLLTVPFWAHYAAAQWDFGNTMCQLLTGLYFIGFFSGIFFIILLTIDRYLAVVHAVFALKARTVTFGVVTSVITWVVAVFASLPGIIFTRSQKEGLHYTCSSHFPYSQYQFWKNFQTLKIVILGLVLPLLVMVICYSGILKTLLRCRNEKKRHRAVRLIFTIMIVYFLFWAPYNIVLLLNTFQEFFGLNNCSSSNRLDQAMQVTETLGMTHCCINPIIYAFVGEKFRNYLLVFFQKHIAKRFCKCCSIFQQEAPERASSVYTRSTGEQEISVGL

[4] = biological target: D(1A) dopamine receptor (Homo sapiens, UniProt P21728); experiment: DRUGMATRIX: Dopamine D1 radioligand binding (ligand: [3H] SCH-23390); format: cell membranes, Membrane; conditions: cho; Not Active = under 50% inhibition at 10 µM
Sequence of D(1A) dopamine receptor (P21728 whole entry): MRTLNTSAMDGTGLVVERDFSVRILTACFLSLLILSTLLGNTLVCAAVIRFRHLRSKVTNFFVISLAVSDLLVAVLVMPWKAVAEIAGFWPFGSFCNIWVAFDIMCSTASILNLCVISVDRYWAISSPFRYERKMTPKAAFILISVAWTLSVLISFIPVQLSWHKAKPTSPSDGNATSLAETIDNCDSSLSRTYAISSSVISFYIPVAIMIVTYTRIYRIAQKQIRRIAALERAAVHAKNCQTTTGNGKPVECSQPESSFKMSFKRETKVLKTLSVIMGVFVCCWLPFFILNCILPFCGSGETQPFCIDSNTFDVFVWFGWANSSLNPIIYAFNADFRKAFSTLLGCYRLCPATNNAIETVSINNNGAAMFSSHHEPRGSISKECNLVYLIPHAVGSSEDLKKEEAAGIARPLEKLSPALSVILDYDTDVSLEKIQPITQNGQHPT

[5] = biological target: T1, Amine oxidase [flavin-containing] A (Homo sapiens, UniProt P21397); experiment: DRUGMATRIX: Monoamine Oxidase MAO-A enzyme inhibition (substrate: Kynuramine); set-up: species or system BTI-TN-5B1-4; conditions: bti-tn-5b1-4; Not Active = under 50% inhibition at 10 µM
T1 sequence (P21397 whole entry): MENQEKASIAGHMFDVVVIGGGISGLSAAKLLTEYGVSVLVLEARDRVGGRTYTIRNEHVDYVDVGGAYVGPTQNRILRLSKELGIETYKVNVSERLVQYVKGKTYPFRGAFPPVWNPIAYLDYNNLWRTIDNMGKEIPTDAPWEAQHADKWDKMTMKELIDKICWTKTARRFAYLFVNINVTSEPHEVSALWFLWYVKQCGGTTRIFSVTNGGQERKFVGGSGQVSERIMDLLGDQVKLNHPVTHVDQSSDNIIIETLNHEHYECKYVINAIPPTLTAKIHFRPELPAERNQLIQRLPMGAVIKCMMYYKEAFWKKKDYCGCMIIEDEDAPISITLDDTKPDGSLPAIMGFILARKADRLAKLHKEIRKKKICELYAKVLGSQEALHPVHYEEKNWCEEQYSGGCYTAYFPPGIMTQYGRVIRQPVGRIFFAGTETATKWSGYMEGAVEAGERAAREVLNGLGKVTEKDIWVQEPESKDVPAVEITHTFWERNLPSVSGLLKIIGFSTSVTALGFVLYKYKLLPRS

[6] = biological target: Mu-type opioid receptor (Homo sapiens, UniProt P35372); experiment: DRUGMATRIX: Opiate mu (OP3, MOP) radioligand binding (ligand: [3H] Diprenorphine); format: cell membranes, CHO-K1, Membrane; conditions: cho-k1; Not Active = under 50% inhibition at 10 µM
Sequence of Mu-type opioid receptor (P35372 whole entry): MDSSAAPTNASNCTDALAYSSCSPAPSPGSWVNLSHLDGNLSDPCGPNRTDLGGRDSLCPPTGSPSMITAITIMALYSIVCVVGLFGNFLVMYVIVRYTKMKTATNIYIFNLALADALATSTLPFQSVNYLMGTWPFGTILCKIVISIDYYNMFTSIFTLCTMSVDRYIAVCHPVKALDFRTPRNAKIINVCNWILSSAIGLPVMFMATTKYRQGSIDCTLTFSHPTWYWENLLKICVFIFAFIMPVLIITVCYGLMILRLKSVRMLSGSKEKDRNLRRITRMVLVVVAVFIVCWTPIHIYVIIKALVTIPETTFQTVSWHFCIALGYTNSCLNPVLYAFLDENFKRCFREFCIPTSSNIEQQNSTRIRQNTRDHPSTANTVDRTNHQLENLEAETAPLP

[7] = DRUGMATRIX: Phosphodiesterase PDE4 enzyme inhibition (substrate: [3H]cAMP + cAMP); conditions: u-937; Not Active = under 50% inhibition at 10 µM
[8] = biological target: Protein kinase C alpha type (Homo sapiens, UniProt P17252); format: cell-based; conditions: sf9;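 further: inhibition of PKCalpha kinase activity measured in an enzyme assay with histone as the phosphorylation substrate; in other assays of this panel Not Active means under 50% inhibition at 10 µM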
[9] = biological target: Mitogen-activated protein kinase 14 (Homo sapiens, UniProt Q16539); set-up: species or system Escherichia coli;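 further: inhibition of p38alpha enzyme activity in a biochemical kinase assay, with myelin basic protein serving as substrate; in other assays of this panel Not Active means under 50% inhibition at 10 µM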
Sequence of Mitogen-activated protein kinase 14 (Q16539 whole entry): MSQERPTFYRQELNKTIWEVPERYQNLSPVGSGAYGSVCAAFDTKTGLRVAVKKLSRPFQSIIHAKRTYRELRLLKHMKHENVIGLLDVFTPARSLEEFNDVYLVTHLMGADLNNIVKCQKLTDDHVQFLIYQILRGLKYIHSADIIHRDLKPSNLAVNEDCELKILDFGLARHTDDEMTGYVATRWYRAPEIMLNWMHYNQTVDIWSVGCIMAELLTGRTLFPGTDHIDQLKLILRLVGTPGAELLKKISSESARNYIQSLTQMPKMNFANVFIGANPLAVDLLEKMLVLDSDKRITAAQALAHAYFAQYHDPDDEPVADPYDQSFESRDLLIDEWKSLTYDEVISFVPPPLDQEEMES

[10] = biological target: Receptor tyrosine-protein kinase erbB-2 (Homo sapiens, UniProt P04626); experiment: biochemical; format: cell-based, Insect cells; conditions: insect cells;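 further: inhibition of HER2 kinase enzyme activity, measured with Poly(Glu:Tyr) as the phosphorylation substrate; in other assays of this panel Not Active means under 50% inhibition at 10 µM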
Sequence of Receptor tyrosine-protein kinase erbB-2 (P04626 whole entry): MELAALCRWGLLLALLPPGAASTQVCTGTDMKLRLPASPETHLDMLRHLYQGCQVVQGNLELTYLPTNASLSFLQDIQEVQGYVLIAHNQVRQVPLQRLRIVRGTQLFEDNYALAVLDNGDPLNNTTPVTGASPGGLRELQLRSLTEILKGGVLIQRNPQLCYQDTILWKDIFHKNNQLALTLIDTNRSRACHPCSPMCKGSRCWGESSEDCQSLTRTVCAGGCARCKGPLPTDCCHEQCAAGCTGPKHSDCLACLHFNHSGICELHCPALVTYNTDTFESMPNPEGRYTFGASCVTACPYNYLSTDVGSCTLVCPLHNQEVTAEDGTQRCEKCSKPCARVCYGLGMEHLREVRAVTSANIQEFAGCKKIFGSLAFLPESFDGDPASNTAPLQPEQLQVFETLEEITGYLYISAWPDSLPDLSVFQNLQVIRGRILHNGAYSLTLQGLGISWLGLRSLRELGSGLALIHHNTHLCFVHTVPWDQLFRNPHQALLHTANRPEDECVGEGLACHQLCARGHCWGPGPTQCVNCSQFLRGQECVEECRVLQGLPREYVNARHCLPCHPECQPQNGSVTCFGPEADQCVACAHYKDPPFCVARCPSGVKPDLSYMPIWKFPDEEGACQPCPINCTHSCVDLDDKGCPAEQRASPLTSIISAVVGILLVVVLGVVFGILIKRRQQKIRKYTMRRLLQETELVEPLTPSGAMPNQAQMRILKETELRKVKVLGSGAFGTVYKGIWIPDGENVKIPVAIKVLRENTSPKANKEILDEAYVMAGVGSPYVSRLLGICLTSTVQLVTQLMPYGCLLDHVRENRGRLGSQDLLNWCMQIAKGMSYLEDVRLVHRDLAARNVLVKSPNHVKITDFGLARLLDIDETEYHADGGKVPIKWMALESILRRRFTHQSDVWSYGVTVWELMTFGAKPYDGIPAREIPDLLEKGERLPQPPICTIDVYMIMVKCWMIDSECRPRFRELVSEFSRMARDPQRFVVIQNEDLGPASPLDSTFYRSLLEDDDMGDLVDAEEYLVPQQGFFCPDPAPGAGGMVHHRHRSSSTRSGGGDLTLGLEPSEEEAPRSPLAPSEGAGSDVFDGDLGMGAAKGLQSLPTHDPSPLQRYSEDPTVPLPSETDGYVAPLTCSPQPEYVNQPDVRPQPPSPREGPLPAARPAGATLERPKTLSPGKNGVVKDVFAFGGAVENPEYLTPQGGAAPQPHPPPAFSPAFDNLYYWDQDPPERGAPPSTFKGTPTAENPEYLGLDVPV

[11] = biological target: T2, Adenosine receptor A3 (Homo sapiens, UniProt P0DMS8); format: cell membranes, CHO-K1, Membrane
T2 sequence (P0DMS8 whole entry): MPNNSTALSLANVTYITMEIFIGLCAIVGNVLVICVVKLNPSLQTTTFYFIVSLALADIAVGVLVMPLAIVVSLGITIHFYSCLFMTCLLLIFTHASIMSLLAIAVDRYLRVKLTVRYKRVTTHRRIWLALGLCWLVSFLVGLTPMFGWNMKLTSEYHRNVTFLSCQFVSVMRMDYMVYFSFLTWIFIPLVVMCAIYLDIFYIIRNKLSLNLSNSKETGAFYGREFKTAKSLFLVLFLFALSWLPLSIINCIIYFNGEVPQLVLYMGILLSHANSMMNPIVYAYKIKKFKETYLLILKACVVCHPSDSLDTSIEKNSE

Sequence of Beta-3 adrenergic receptor (P13945 whole entry): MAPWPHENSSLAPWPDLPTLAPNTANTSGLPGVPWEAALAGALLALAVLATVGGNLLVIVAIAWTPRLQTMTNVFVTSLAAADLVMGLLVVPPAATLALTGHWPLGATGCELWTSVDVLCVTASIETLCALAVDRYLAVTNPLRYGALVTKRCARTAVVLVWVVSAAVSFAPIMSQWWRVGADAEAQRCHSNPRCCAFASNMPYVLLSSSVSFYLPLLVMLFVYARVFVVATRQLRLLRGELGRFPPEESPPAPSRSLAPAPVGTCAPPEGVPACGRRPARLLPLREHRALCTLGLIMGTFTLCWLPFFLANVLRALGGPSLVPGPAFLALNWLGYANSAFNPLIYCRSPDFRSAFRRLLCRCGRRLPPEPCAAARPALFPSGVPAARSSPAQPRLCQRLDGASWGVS

For `COCCOC(=O)C1=C(C)NC(C)=C(C(=O)OC(C)C)C1c1cccc([N+](=O)[O-])c1` (centres undefined) [NIMODIPINE], which IC50 [1] is on record?
Its IC50 is “Not Active”.

And the IC50 [2]?
Its IC50 is “Not Active”.

What about the Ki [2] of the same molecule?
Its Ki is “Not Active”.

What about the IC50 ([3]; hek293) of the same molecule?
Its IC50 is “Not Active”.

What about the IC50 [4] of the same molecule?
The IC50 was “Not Active”.

What about the IC50 [5] of the same molecule?
Its IC50 is “Not Active”.

And the IC50 [6]?
The IC50 was “Not Active”.

What about the IC50 [7] of the same molecule?
The IC50 was “Not Active”.

What about the Ki [7] of the same molecule?
Its Ki is “Not Active”.

What about the IC50 [8] of the same molecule?
Its IC50 is “Not Active”.

What about the IC50 [9] of the same molecule?
The IC50 was “Not Active”.

And the IC50 [10]?
Its IC50 is “Not Active”.

What about the IC50 ([11]; cho-k1) of the same molecule?
The IC50 was “Not Active”.

What does the source list for `CC(C)NCC(O)COc1cccc2ccccc12` (centres undefined) [PROPRANOLOL]?
IC50 ([3]; hek293): Not Active; IC50 [5]: Not Active; IC50 [6]: Not Active; IC50 [8]: Not Active; IC50 [9]: Not Active; IC50 [10]: Not Active; IC50 ([11]; cho-k1): Not Active

For `COCCCOc1ccnc(C[S+]([O-])c2nc3ccccc3[nH]2)c1C` (centres undefined) [RABEPRAZOLE], which IC50 [1] is on record?
The IC50 was “Not Active”.

What about the IC50 [2] of the same molecule?
The IC50 was “Not Active”.

What about the Ki [2] of the same molecule?
Its Ki is “Not Active”.

What about the IC50 ([3]; hek293) of the same molecule?
The IC50 was “Not Active”.

And the IC50 [4]?
Its IC50 is “Not Active”.

And the IC50 [5]?
Its IC50 is “Not Active”.

What about the IC50 [6] of the same molecule?
Its IC50 is “Not Active”.

What about the IC50 [7] of the same molecule?
The IC50 was “Not Active”.

And the Ki [7]?
The Ki was “Not Active”.

And the IC50 [8]?
The IC50 was “Not Active”.

And the IC50 [9]?
Its IC50 is “Not Active”.

And the IC50 [10]?
Its IC50 is “Not Active”.

And the IC50 ([11]; read-out: IC50)?
Its IC50 is 3.22 µM.

And the Ki ([11]; read-out: Ki)?
The Ki was 1.82 µM.

Which IC50 [1] does the source give for `O=C(c1ccc(OCCN2CCCCC2)cc1)c1c(-c2ccc(O)cc2)sc2cc(O)ccc12` [RALOXIFENE] here?
The IC50 was “Not Active”.

And the IC50 ([2]; read-out: IC50)?
The IC50 was 0.148 µM.

And the Ki ([2]; read-out: Ki)?
The Ki was 0.144 µM.

And the IC50 ([3]; hek293)?
Its IC50 is “Not Active”.

And the IC50 [5]?
The IC50 was “Not Active”.

What about the IC50 [7] of the same molecule?
The IC50 was “Not Active”.

What about the Ki [7] of the same molecule?
Its Ki is “Not Active”.

And the IC50 [8]?
Its IC50 is “Not Active”.

What about the IC50 [9] of the same molecule?
The IC50 was “Not Active”.

What about the IC50 [10] of the same molecule?
Its IC50 is “Not Active”.

And the IC50 ([11]; cho-k1)?
Its IC50 is “Not Active”.

What does the source list for `CNC(=C[N+](=O)[O-])NCCSCc1ccc(CN(C)C)o1` [RANITIDINE]?
IC50 [1]: Not Active; IC50 [2]: Not Active; Ki [2]: Not Active; IC50 ([3]; hek293): Not Active; IC50 [4]: Not Active; IC50 [5]: Not Active; IC50 [6]: Not Active; IC50 [7]: Not Active; Ki [7]: Not Active; IC50 [8]: Not Active; IC50 [9]: Not Active; IC50 [10]: Not Active; IC50 ([11]; cho-k1): Not Active

Which IC50 [1] does the source give for `CO[C@H]1/C=C/O[C@@]2(C)Oc3c(C)c(O)c4c(c3C2=O)C2=NC3(CCN(CC(C)C)CC3)NC2=C(NC(=O)/C(C)=C\C=C\[C@H](C)[C@H](O)[C@@H](C)[C@@H](O)[C@@H](C)[C@H](OC(C)=O)[C@@H]1C)C4=O` [RIFABUTIN] here?
Its IC50 is “Not Active”.

And the IC50 [2]?
The IC50 was “Not Active”.

What about the Ki [2] of the same molecule?
The Ki was “Not Active”.

And the IC50 ([3]; hek293)?
Its IC50 is “Not Active”.

What about the IC50 [4] of the same molecule?
The IC50 was “Not Active”.

And the IC50 [5]?
Its IC50 is “Not Active”.

What about the IC50 [6] of the same molecule?
The IC50 was “Not Active”.

And the IC50 [7]?
The IC50 was “Not Active”.

And the Ki [7]?
The Ki was “Not Active”.

And the IC50 [8]?
The IC50 was “Not Active”.

And the IC50 [9]?
The IC50 was “Not Active”.

What about the IC50 [10] of the same molecule?
Its IC50 is “Not Active”.

And the IC50 ([11]; cho-k1)?
The IC50 was “Not Active”.

With `CC(C)c1nc(CN(C)C(=O)N[C@H](C(=O)N[C@@H](Cc2ccccc2)C[C@H](O)[C@H](Cc2ccccc2)NC(=O)OCc2cncs2)C(C)C)cs1` [RITONAVIR] as the molecule, how does the IC50 [1] read?
The IC50 was “Not Active”.

What about the IC50 ([3]; hek293) of the same molecule?
Its IC50 is “Not Active”.

What about the IC50 [4] of the same molecule?
Its IC50 is “Not Active”.

What about the IC50 [5] of the same molecule?
The IC50 was “Not Active”.

What about the IC50 [7] of the same molecule?
The IC50 was “Not Active”.

And the Ki [7]?
Its Ki is “Not Active”.

What about the IC50 [8] of the same molecule?
The IC50 was “Not Active”.

And the IC50 [9]?
The IC50 was “Not Active”.

And the IC50 [10]?
The IC50 was “Not Active”.

What about the IC50 ([11]; cho-k1) of the same molecule?
Its IC50 is “Not Active”.

What does the source list for `CC(C)CC(N(C)C)C1(c2ccc(Cl)cc2)CCC1` (centres undefined) [SIBUTRAMINE]?
IC50 [1]: Not Active; IC50 ([2]; read-out: IC50): 2.72 µM; Ki ([2]; read-out: Ki): 2.65 µM; IC50 ([3]; hek293): Not Active; IC50 [4]: Not Active; IC50 [5]: Not Active; IC50 [6]: Not Active; IC50 [7]: Not Active; Ki [7]: Not Active; IC50 [8]: Not Active; IC50 [9]: Not Active; IC50 [10]: Not Active; IC50 ([11]; cho-k1): Not Active

With `CC(C)(C)c1ccc(C(O)CCCN2CCC(C(O)(c3ccccc3)c3ccccc3)CC2)cc1` (centres undefined) [TERFENADINE] as the molecule, how does the IC50 [1] read?
Its IC50 is “Not Active”.

And the IC50 ([2]; read-out: IC50)?
Its IC50 is 0.624 µM.

What about the Ki ([2]; read-out: Ki) of the same molecule?
The Ki was 0.607 µM.

And the IC50 ([3]; read-out: IC50)?
Its IC50 is 1.1 µM.

What about the Ki ([3]; read-out: Ki) of the same molecule?
Its Ki is 0.852 µM.

What about the IC50 [5] of the same molecule?
The IC50 was “Not Active”.

What about the IC50 [6] of the same molecule?
The IC50 was “Not Active”.

What about the IC50 [7] of the same molecule?
The IC50 was “Not Active”.

What about the Ki [7] of the same molecule?
Its Ki is “Not Active”.

What about the IC50 [8] of the same molecule?
Its IC50 is “Not Active”.

What about the IC50 [9] of the same molecule?
The IC50 was “Not Active”.

What about the IC50 [10] of the same molecule?
Its IC50 is “Not Active”.

And the IC50 ([11]; cho-k1)?
The IC50 was “Not Active”.

Which IC50 [1] does the source give for `CC(=O)CC(c1ccccc1)c1c(O)c2ccccc2oc1=O` (centres undefined) [WARFARIN] here?
Its IC50 is “Not Active”.

And the IC50 [2]?
The IC50 was “Not Active”.

What about the Ki [2] of the same molecule?
The Ki was “Not Active”.

And the IC50 ([3]; hek293)?
The IC50 was “Not Active”.

And the IC50 [4]?
The IC50 was “Not Active”.

And the IC50 [5]?
Its IC50 is “Not Active”.

And the IC50 [7]?
The IC50 was “Not Active”.

What about the Ki [7] of the same molecule?
The Ki was “Not Active”.

What about the IC50 [8] of the same molecule?
The IC50 was “Not Active”.

What about the IC50 [9] of the same molecule?
Its IC50 is “Not Active”.

What about the IC50 [10] of the same molecule?
Its IC50 is “Not Active”.

What about the IC50 ([11]; cho-k1) of the same molecule?
Its IC50 is “Not Active”.
